Measured values taken from PubChem BioAssay (NCI).
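Step 1: Grow cells in 96-well plates. Step 2: Expose to compound for 48 hours at 5 concentrations. Step 3: Interpolate endpoints linearly; if unreached, use highest concentration. The concentration for 50% growth inhibition is given as GI50. Definition used: TGI = concentration required for complete inhibition of growth.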 Where a SMILES comes first, the peptide text is derived from it. [ ]: non-standard residue; d: D form. The star is where a group is joined. AllylGly = C=CC[CH](N)C(=O)O; Boc = CC(C)(C)OC(=O)*; OtBu = CC(C)(C)O*

Experiments:
Test in all cases: DTP human tumour cell line panel, 48 h
M14 melanoma = test system: M14 melanoma
MCF7 breast = test system: MCF7 breast
MDA-MB-435 = test system: MDA-MB-435
EKVX NSCLC = test system: EKVX NSCLC
SNB-19 CNS = test system: SNB-19 CNS
K-562 leukemia = test system: K-562 leukemia
NCI/ADR-RES ovarian = test system: NCI/ADR-RES ovarian
RXF 393 renal = test system: RXF 393 renal

SMILES	TGI (M14 melanoma) [µM]	TGI (MCF7 breast) [µM]	TGI (MDA-MB-435) [µM]	TGI (EKVX NSCLC) [µM]	TGI (SNB-19 CNS) [µM]	TGI (K-562 leukemia) [µM]	TGI (NCI/ADR-RES ovarian) [µM]	TGI (RXF 393 renal) [µM]	GI50 (M14 melanoma) [nM]	GI50 (MDA-MB-435) [µM]	GI50 (RXF 393 renal) [nM]	GI50 (MCF7 breast) [µM]	GI50 (EKVX NSCLC) [µM]	GI50 (SNB-19 CNS) [µM]	GI50 (K-562 leukemia) [µM]	GI50 (NCI/ADR-RES ovarian) [µM]
CC(C)C1(C)N=C(C(F)(F)F)c2cc(C(=O)C(F)(F)F)c3ccccc3c2N1 (centres undefined)	18.2	14.7	11.3	18.4	16.6	> 100	9.09	10.1								
CCc1n[nH]c(=O)n1/N=C/c1ccccc1Cl	> 100	> 100	> 100	29.4	> 100	> 100	> 100	> 100								
CC(C)(C)N(Cc1ccc2c(c1)OCO2)C(=O)/C=C\S(=O)c1ccccc1 (centres undefined)	8.2	14.2	9.74	20.9	20.7	> 100	10.2	8.22								
COCC1OC(OC2C3=C(C(C)C)CCC3(C)/C=C3\C(CCC3(O)COC)C(C)C2O)C(O)C2OC3OC12OC3(C)C1CO1 (centres undefined)	> 100	> 100	> 100	> 100	> 100	> 100		> 100								
NCCCNc1nc2ccccc2c2c(=O)c3cc(C(F)(F)F)ccc3sc12	3.12		3.06					2.72	1640	1.65	1380					
CCOC(=O)CCC(NC(=O)c1ccc(Oc2nc3ccc(C(F)(F)F)cc3nc2-c2ccccc2)cc1)C(=O)OCC (centres undefined)	> 100	> 100	> 100	64	> 100	> 100	> 100	55.4								
CCNC1(c2cccc(C)c2)OC(C)(C)c2cccc3cccc1c23 (centres undefined)	38.1	34.9	33.2	38	33.6	> 100	42.6	32.1								
CCCc1cc(=O)oc2c3c(c4c(c12)OC(C)(C)C=C4)O[C@@H](C)[C@H](C)C3=O		46.3	58.8	24.6	37.5	27.7	35.4									
COc1ccc(C2SCC(=O)N2c2ccc(-n3c(-c4ccccc4)nc4ccccc4c3=O)cc2)cc1OC (centres undefined)	> 100	> 100	> 100	> 100	> 100	> 100	> 100									
O=[N+]([O-])c1cccc2nc3ccccc3c(NCCc3cccc[n+]3[O-])c12	< 0.0172	0.276	< 0.0184	0.121	1.62	> 100	8.67	0.11								
Cn1c(=O)cc(NCc2ccc(Cl)cc2)[nH]c1=O	> 100	> 100	> 100	> 100	> 100	> 100	> 100	> 100								
COc1ccc(/C=C2\C[C@H]3[C@@H]4CCC5=C[C@@H](N6CCCC6)CC[C@]5(C)[C@H]4CC[C@]3(C)[C@H]2O)cc1	2.9	5.84	4.47	17	16.1	11.8	16.8	3.29								
COC(=O)C1(Cc2ccc3c(c2)CCC3)Cc2ccc3c(c2C1O)CCC3 (centres undefined)		26.9	27.5	32		> 100	35.9	31								
CC1CC[C@@]2(OC1)OC1C[C@H]3[C@@H]4C/C(=N\N(C)C)[C@@]5(O)CC(O)CC[C@]5(C)[C@H]4CC[C@]3(C)C1[C@@H]2C (some centres undefined)	> 100	> 100	> 100		> 100	> 100	> 100	61.2								
CC(OC(=O)NCn1cc(-c2ccccc2)nn1)c1ccccc1 (centres undefined)	34.9	> 100	> 100	> 100	> 100	75.5	> 100									
N#Cc1c(-c2ccc([N+](=O)[O-])cc2)cc(-c2ccc(Nc3ccnc4cc(C(F)(F)F)ccc34)cc2)nc1N	36.4	10.7	33.3	> 93.3	34.7	19.1	35.3	51.7								
O=C1NC(Cc2c[nH]c3ccccc23)C(=O)N2C(C3CCCCC3)c3[nH]c4ccccc4c3C[C@@H]12 (some centres undefined)	28.9	> 100	24.6	57.2	> 100	44.8	41.2	21.2								
COC(=O)C(O)P(=O)(OC)OC (centres undefined)	> 100	> 100	> 100	> 100	> 100	> 100	> 100	> 100								
Cc1ccc(-c2c(C#N)c(S)n(NS(=O)(=O)c3ccc(C)cc3)c(=O)c2C#N)cc1	81.5	> 100	52.8	> 100	52.1	> 100	77.9	97.5								
COc1ccc(N=C(C)c2ccncc2)cc1	> 100	> 100	> 100	> 100	> 100	> 100	> 100	> 100								
Nc1c(-c2nc3ccccc3s2)c2ccc([N+](=O)[O-])cc2c(=O)n1-c1cccc(C(=O)O)c1			> 100		52		> 100									
Cc1ccc(S(=O)(=O)NN=C2CCCCCCCCCCC2)cc1	> 100	> 100	> 100	> 100	> 100	> 100	> 100	> 100								
CCOc1ccc(/C(O)=C/c2nc3ccccc3nc2/C=C(\O)c2ccc(OCC)cc2)cc1	> 100	> 100	> 100	> 100	> 100	> 100		> 100								
COc1cc(CCCOC(=O)/C=C/c2ccc(O)c(O)c2)cc(O)c1O	> 100	69.4	> 100	> 100	> 100	> 100		> 100								
O=c1cc(N2CCOCC2)[nH]c(=O)n1-c1cccc(C(F)(F)F)c1	> 100	> 100	> 100	> 100		> 100	> 100									
CCCc1c(OC)c(=O)c2c(OC)cc(OC)c3c4c(OC)cc(OC)c5c(=O)c(OC)c(CCC)c(c1c23)c54	30.6	46.6	29.6	28	34.6		47.4	69.1								

SMILES	TGI (M14 melanoma) [µM]	TGI (MCF7 breast) [µM]	TGI (MDA-MB-435) [µM]	TGI (EKVX NSCLC) [µM]	TGI (SNB-19 CNS) [µM]	TGI (K-562 leukemia) [µM]	TGI (NCI/ADR-RES ovarian) [µM]	TGI (RXF 393 renal) [µM]	GI50 (M14 melanoma) [nM]	GI50 (MDA-MB-435) [µM]	GI50 (RXF 393 renal) [nM]	GI50 (MCF7 breast) [µM]	GI50 (EKVX NSCLC) [µM]	GI50 (SNB-19 CNS) [µM]	GI50 (K-562 leukemia) [µM]	GI50 (NCI/ADR-RES ovarian) [µM]
CN(C)c1ccc(/C=C(\C#N)C(N)=C(C#N)C#N)cc1	> 100	> 100	> 100	> 100	> 100	> 100	> 100	> 100								
O=C1CN2Cc3cc(N4CCOCC4)ccc3N=C2N1	> 100	> 100	> 100		> 100	> 100	> 100	> 100								
CC1(C2(C)OC(=O)c3ccccc32)OC(=O)c2ccccc21 (centres undefined)	> 100	> 100	> 100		> 100		> 100	> 100								
C=CCC(NC(=O)C(CC(=O)OC(C)(C)C)NC(=O)OC(C)(C)C)C(=O)OC (centres undefined) (Boc-Asp(OtBu)-[AllylGly]-OMe; configuration not given here)	43	> 100	> 91.3	> 100	> 100	> 100	> 100	> 100								
N#CCCN(CCC#N)c1ccc(C(N=Nc2ccccc2)=Nc2ccccc2)cc1	> 100	> 100	> 100	> 100	> 100	> 100	> 100	> 100								
COc1ccc2nc3ccc(OC)cc3c(S(=O)(=O)Cc3ccc([N+](=O)[O-])cc3)c2c1	> 100	> 100	> 100	> 100	> 100	> 100	> 100	> 100								
O=c1[nH]c(Nc2cccc(C(F)(F)F)c2)nc2nc[nH]c12	> 100	> 100	> 100	> 100	> 100	> 100	> 100	> 100								
C[C@H](Nc1c(O)c2c(c(O)c1Cl)C(=O)C=CC2=O)C(=O)Nc1ccc([N+](=O)[O-])cc1	2.53	3.42	3.04	> 10	9.59	> 10	5.05	3.04								
OC12COc3ccccc3C1Oc1ccccc1C2 (centres undefined)	> 100	> 100	> 100	> 100		> 100	> 100									
O=c1[nH]c(=O)n(C2CC(O)C(CO)O2)cc1OCCCc1ccccc1 (centres undefined)	> 100	> 100	> 100	> 100	> 100	> 100	> 100	> 100								
CC1=C2c3c(C)ccc4ccc(C)c(c34)C2(O)C(C)C1=O (centres undefined)	> 100	> 100	> 100	> 100	> 100	> 100	76									
COCC1CCCN1c1ccc(/C=C(/C#N)C(N)=S)cc1 (centres undefined)	> 100	> 100	> 100	> 100	> 100	> 100	> 100	> 100	> 100000	15	> 100000	69.4	> 100	> 100	30.2	> 100
CC(=O)C(=[N+]=[N-])C(=O)OC(C)(C)C#N	> 10	> 10	> 10	> 10	> 10	> 10	> 10	> 10								
CN(NC(=O)CCCl)C1=NCCN1	> 100	> 100	> 100	> 100	> 100	> 100	> 100	> 100								
CCCCCCOc1ccc(C(=O)NOCc2ccccc2)cc1	> 100	> 100	> 100	> 100	> 100	> 100	> 100	> 100								
Cc1cccc2c1Oc1ccccc1C2NC(=O)c1ccc([N+](=O)[O-])cc1 (centres undefined)	> 100			> 100	> 100	> 100	> 100	89.2								
Cc1cccc2c1Oc1cc(Cl)ccc1C2NC(=O)CCN1CCN(CCO)CC1 (centres undefined)	30.3	30.3	27.5	70.5	72	40.6	30.9									
CC1(C)CC[C@]2(C)CC=C3[C@]4(C)CC[C@H]5C(C)(C)C(=O)CC[C@]5(C)[C@H]4CC[C@@]3(C)[C@H]2C1	> 100	> 100	> 100	> 100	> 100		> 100	> 100								
O=C(CC(=O)N1N=C(N2CCCCC2)CC1c1ccccc1)Nc1ccc(Cl)cc1 (centres undefined)	> 100	> 100	> 100	> 100	> 100		> 100									
CSc1nc(-c2cc3c(c(SC)n2)CCCCC3)cc2c1CCCCC2	> 100		> 100	> 100	> 100	> 100	> 100	> 100								
Clc1ccc(Oc2ccc(N=Cc3ccc(Cl)cc3Cl)cc2Cl)cc1	68	> 100	49.7	> 100	> 100		84.9									
O=C(/C=C/c1ccc(Cl)cc1)Oc1ccc(/C=C2\CCCCC2=O)cc1	> 100	> 100	> 100	> 100												
O=C1CCC[C@]2(CCC[C@@H](O)C2)N1	> 100	> 100		> 100	> 100	> 100	> 100	> 100								
CC1(C)CC(=O)C2=C(C1)c1c(ccc3ccccc13)NC2c1cn(Cc2ccc(Cl)cc2)c2ccccc12 (centres undefined)	> 100	> 100	> 100	> 100	> 100	> 100	> 100									
COc1cc(C2c3cc4c(cc3OC(Nc3ccc(C(=O)O)cc3)C2C)OCO4)cc(OC)c1OC (centres undefined)	31.8	40	0.265	> 100	> 93.4		4.9	92								
